In brackets after ≈: the same amount, converted by molar mass. Read-outs that look alike come from different tables or passages of the source.
Legend:
[1] = test system: T. cruzi NINOA (MHOM/MX/1994/NINOA) strain epimastigotes; experiment: Trypanocidal activity, T. cruzi epimastigotes, NINOA strain (resazurin); format: cell-based, Trypanosoma cruzi; conditions: 48 h
[2] = test system: T. cruzi strain A1 epimastigotes; experiment: Trypanocidal activity, T. cruzi epimastigotes, A1 strain (resazurin); format: cell-based, Trypanosoma cruzi; conditions: 48 h
[3] = test system: M. tuberculosis H37Rv (ATCC 27294); experiment: Anti-Mycobacterium activity, microplate Alamar Blue Assay (MABA); format: cell-based, Mycobacterium tuberculosis; conditions: H37Rv strain, minimum concentration achieving 90% inhibition; for MIC: Mycobacterium tuberculosis
Experimental: The reference strain H37Rv (ATCC 27294) of M. tuberculosis was utilized to assess anti-M. tuberculosis activity using the microplate Alamar Blue Assay (MABA), as previously reported. Samples underwent evaluation in triplicate independent experiments. Isoniazid, rifampicin, moxifloxacin, and linezolid were included as reference drugs, and the minimum drug concentration that achieved 90% inhibition was recorded as the minimum inhibitory concentration (MIC).

[4] = test system: L. mexicana MNYC/BZ/62/M379 promastigotes; experiment: Leishmanicidal activity, L. mexicana promastigotes, M379 strain (MTT); format: cell-based, Leishmania mexicana; conditions: 48 h
Experimental: (§1) For leishmanicidal assays, the reference strain (MNYC/BZ/62/M379) and the isolate (MHOM/MX/2017/UABJO17FCQEPS) of L. mexicana were used. Promastigotes were cultured in RPMI 1640 medium supplemented with 10% FBS, 100 U/mL penicillin-100 […] streptomycin, and glutamine (2 mM). 100 µL parasites (5 × 10^5/mL) were added in a 96-well plate, and 100 µL of appropriate concentrations (0.78 to 200 µM) of each sample dissolved in DMSO and incubated for 48 h at 26 °C. Wells containing promastigotes with DMSO 0.2% were used as a negative control, and the reference drug glucantime was included as the positive control. The 3-(4,5-Dimethylthiazol-2-yl)-2,5-diphenyltetrazolium bromide (MTT) was used to measure metabolic activity. The IC50 values were calculated with the probit statistical tool. All samples were evaluated in triplicate in three independent experiments.

[5] = test system: L. mexicana MHOM/MX/2017/UABJO17FCQEPS promastigotes; experiment: Leishmanicidal activity, L. mexicana promastigotes, FCQEPS isolate (MTT); format: cell-based, Leishmania mexicana; conditions: 48 h, FCQEPS strain
Experimental: as §1

[6] = Cytotoxicity on macrophages (MTT); format: cell-based, mouse; conditions: mouse
Experimental: Cytotoxicity was assessed on J774.2 mouse macrophage cells (ATCC® TIB-67, ATCC, Manassas, VA, USA). Cells were cultured in RPMI medium supplemented with 10% SFB, 100 U µg/mL penicillin-100 mg/mL streptomycin, and glutamine (2 mM) at 37 °C and in a 5% CO2 atmosphere. A known concentration of cells (1 × 10^6/mL) was incubated with the compounds at different concentrations (0.78 to 200 µM) for 48 h at 37 °C in a CO2 atmosphere (5%). Wells containing cells treated with 0.2% DMSO were used as a negative control. MTT was employed to evaluate the metabolic activity. Next, the cell viability was calculated (%), and the cytotoxic concentration (CC50) was determined with probit analysis. All samples were evaluated in triplicate in three independent experiments.

[7] = Cytotoxicity (CC50) Macrophages J774.2

| Structure (SMILES) | IC50 ([1]; listed as Bzn) [µM] | IC50 ([1]; Trypanosoma cruzi) [µM] | IC50 [2] [µM] | IC50 ([2]; Trypanosoma cruzi) [µM] | MIC [3] [µg/mL] | IC50 L. mexicana M379 [4] | IC50 ([4]; Leishmania mexicana) [µM] | IC50 ([5]; Leishmania mexicana) [µM] | MABA MIC [3] [µg/mL] | CC50 at 48 h ([6]; J774.2 macrophage cells, J774.2 macrophages, 48 h, MTT, read-out: Cytotoxicity (CC50) Macrophages J774.2) [µM] | IC50 [1] [µM] | IC50 [5] [µM] | CC50 at 48 h [6, 7] [µM] | IC50 T. cruzi NINOA [1] | IC50 [4] [µM] |
| --- | --- | --- | --- | --- | --- | --- | --- | --- | --- | --- | --- | --- | --- | --- | --- |
| O=C(Cn1ccnc1[N+](=O)[O-])NCc1ccccc1 [Benznidazole, reference compound] | 30 | > 30 | 39.1 ± 0.7 | 39 |  |  |  |  |  |  |  |  |  |  |  |
| NNC(=O)c1ccncc1 [Isoniazid, reference compound] |  |  |  |  | 0.039 (≈ 0.284 µM) |  |  |  |  |  |  |  |  |  |  |
| CC(=O)NC[C@H]1CN(c2ccc(N3CCOCC3)c(F)c2)C(=O)O1 [Linezolid, reference compound] |  |  |  |  | 0.33 (≈ 0.978 µM) |  |  |  |  |  |  |  |  |  |  |
| COc1c(N2C[C@@H]3CCCN[C@@H]3C2)c(F)cc2c(=O)c(C(=O)O)cn(C3CC3)c12 [Moxifloxacin, reference compound] |  |  |  |  | 0.184 (≈ 0.458 µM) |  |  |  |  |  |  |  |  |  |  |
| O=C(N/N=C/c1ccc([N+](=O)[O-])o1)c1ccc(O)cc1 [Nfz, Nifuroxazide] |  | 36 ± 1.2 | 10.4 ± 1.6 | 10.4 | < 20 | no leishmanicidal effects | > 200 | 51.2 ± 4.2 | 12.3 | 42.2 ± 2.3 |  |  |  |  |  |
| O=C(N/N=C/c1ccc([N+](=O)[O-])s1)c1ccc(O)cc1 [Nfz-1] |  | 11.9 | 14 ± 1.9 | < 15 |  | no leishmanicidal effects | > 200 | < 40 |  |  | 11.9 ± 3.2 | 32.9 ± 7 | 43.3 ± 2.7 |  |  |
| O=C(N/N=C/c1ccc(Br)s1)c1ccc(O)cc1 [Nfz-2] |  | 4.7 |  | > 100 | < 20 | no leishmanicidal effects | > 200 | 98.8 ± 5.2 | 18.8 |  | 4.77 ± 5.6 |  | 95.5 ± 4.2 |  |  |
| O=C(N/N=C/c1cccs1)c1ccc(O)cc1 [Nfz-3] |  | > 50 | 20 ± 1.9 | 19.9 | > 100 | no leishmanicidal effects | > 200 | 49.8 ± 5 |  |  | 51 ± 2.8 |  |  |  |  |
| O=C(N/N=C/c1ccco1)c1ccc(O)cc1 [Nfz-4] |  | 18.8 | 28.9 ± 3.4 | 28.8 | > 100 |  | 83.9 ± 6.9 | > 200 |  |  | 19 ± 2.1 |  | > 100 |  |  |
| Cn1cccc1/C=N/NC(=O)c1ccc(O)cc1 [Nfz-5] |  | > 100 | 78.5 ± 4.7 | > 100 | > 100 |  | 5.2 | > 200 |  |  |  |  | 21.9 ± 4.4 | inactivity | 5.25 ± 5.8 |
| O=C(N/N=C/c1ccccc1)c1ccc(O)cc1 [Nfz-6] |  | > 100 | 74.4 ± 4.4 | > 70 | > 100 |  | > 90 | > 200 |  |  |  |  | 28.8 ± 1.5 | inactive | 94.22 ± 0.9 |
| Cc1ccc(/C=N/NC(=O)c2ccc(O)cc2)cc1 [Nfz-7] |  | 26 | 75.2 ± 8.8 | > 70 | 98.3 (≈ 387 µM) |  |  | 103 ± 2.1 |  |  | 26 ± 2.9 |  | 91.7 ± 5.1 |  |  |
| CCc1ccc(/C=N/NC(=O)c2ccc(O)cc2)cc1 [Nfz-8] |  | 14.4 | 7.28 ± 2.2 | 7.2 | 79.4 (≈ 296 µM) |  |  | > 200 |  |  | 14.5 ± 4.4 |  | > 100 |  |  |
| O=C(N/N=C/c1ccc(O)cc1)c1ccc(O)cc1 [Nfz-9] |  | 24.9 ± 3.2 |  | > 100 | 94.1 (≈ 367 µM) |  |  | 94.3 ± 5.9 |  |  |  |  | 82.7 ± 4.4 |  |  |
| O=C(N/N=C/c1ccccc1O)c1ccc(O)cc1 [Nfz-10] |  | > 100 | 8.77 ± 1.6 | 8.7 | < 50 |  | > 50 | > 200 | 47.6 |  |  |  | > 100 |  | 66.7 ± 2.9 |

— publication PMC12114619, “Nifuroxazide and 4-Hydroxybenzhydrazone Derivatives as New Antiparasitic (Trypanosoma cruzi and Leishmania mexicana) and Anti-Mycobacterium tuberculosis Agents” (Pharmaceutics, 2025)
